This test addresses T1, NaV 1.7 (Homo sapiens, UniProt Q15858).
T1 construct: expressed in transfected cells; host or cells: HEK cells
Put plainly: E-VIPR optical membrane potential assay with electrical stimulation. It is filed as cell-based. Conditions: active against one or more sodium channels; assay/subtype not specified in Table 4; read-out: IC50 Binned Activity Data. The method, boiled down: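 HEK cells expressing human NaV1.7, loaded with CC2-DMPE/DiSBAC6(3) FRET dyes, then exposed to compounds for 20-35 min at room temperature (0.625% DMSO). Electrical stimulation applied for 9 s with 400 Hz scanning. Read-out is the background-subtracted 460/580 nm emission ratio, normalized.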

Our source for the IC50 values is US10233191B2, “Fused piperidine amides as modulators of ion channels” (Vertex Pharmaceuticals Incorporated, priority 2013, dated 2019).

Each structure is given as a SMILES string.

A word on the IC50: it is the concentration at which inhibition is half-maximal.

T1 sequence (Q15858 whole entry): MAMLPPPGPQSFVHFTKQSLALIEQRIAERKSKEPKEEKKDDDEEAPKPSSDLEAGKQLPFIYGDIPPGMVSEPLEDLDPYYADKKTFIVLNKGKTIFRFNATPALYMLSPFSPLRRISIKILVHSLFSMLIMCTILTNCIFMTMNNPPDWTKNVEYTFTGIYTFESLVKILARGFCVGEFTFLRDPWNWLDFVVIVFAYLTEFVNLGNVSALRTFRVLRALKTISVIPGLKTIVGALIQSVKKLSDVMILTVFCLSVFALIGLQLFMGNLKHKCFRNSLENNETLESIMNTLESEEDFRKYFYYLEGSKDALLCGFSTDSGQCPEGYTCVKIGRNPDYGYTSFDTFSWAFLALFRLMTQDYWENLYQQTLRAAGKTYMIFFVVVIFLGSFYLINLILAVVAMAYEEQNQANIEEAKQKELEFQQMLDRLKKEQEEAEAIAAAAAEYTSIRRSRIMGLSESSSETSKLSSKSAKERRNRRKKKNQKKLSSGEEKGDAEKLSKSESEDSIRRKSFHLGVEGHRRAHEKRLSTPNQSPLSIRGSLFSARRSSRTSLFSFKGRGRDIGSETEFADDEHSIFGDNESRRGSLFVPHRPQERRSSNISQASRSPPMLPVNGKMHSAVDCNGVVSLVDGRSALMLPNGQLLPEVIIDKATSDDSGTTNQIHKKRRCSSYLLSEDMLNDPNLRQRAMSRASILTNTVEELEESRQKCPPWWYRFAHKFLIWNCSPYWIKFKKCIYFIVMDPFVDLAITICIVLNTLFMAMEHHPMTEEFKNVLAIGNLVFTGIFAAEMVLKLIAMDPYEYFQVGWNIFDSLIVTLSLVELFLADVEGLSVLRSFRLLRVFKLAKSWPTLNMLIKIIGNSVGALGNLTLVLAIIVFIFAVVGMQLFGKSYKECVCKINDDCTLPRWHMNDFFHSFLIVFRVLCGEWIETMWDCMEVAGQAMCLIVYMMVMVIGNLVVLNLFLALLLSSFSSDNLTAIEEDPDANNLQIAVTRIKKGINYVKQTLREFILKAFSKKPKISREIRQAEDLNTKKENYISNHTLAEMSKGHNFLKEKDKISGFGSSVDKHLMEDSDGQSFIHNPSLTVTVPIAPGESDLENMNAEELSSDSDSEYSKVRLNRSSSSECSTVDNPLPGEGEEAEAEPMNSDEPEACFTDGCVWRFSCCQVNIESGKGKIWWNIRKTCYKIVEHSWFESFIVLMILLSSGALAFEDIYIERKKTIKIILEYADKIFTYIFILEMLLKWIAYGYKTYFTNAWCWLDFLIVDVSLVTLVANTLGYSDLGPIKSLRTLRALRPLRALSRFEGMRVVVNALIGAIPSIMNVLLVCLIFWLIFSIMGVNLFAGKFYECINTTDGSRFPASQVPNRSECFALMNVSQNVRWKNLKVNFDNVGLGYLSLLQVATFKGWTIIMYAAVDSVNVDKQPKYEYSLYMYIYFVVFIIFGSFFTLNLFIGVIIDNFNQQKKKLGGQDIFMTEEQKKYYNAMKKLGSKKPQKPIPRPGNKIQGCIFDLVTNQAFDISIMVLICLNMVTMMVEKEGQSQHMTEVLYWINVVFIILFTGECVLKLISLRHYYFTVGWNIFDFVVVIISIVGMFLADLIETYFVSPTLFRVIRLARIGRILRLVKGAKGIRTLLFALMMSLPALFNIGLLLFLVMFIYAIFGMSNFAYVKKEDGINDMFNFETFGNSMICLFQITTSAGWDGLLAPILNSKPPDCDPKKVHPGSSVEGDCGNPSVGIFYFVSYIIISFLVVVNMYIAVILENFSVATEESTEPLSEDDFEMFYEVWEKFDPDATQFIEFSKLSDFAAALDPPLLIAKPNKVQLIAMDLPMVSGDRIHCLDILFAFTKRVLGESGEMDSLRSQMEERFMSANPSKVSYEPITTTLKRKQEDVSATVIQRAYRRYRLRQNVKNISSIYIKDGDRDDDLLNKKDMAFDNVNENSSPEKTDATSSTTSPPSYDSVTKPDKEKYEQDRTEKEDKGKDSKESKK

For `O=C(c1ccc(OCCOC(F)(F)F)c(Cl)c1)N1CC[C@@]2(c3ccccn3)COC2C1` (stereo partly drawn) [Compound 253], the IC50 was no more than 2000 nM.

As to `O=C(c1ccc2c(c1)OCC(COC(F)(F)F)O2)N1CC[C@@]2(c3ccccc3)OCOC2C1` (stereo partly drawn) [Compound 54], the IC50 is no more than 2000 nM. The result for `COc1cc(C(=O)N2CC[C@]3(c4ccccn4)OCOC3C2)ccc1OCC(C)(C)F` (stereo partly drawn) [Compound 23] reads 2000 to 5000 nM; that for `COc1cc(C(=O)N2CC[C@]3(c4ccc(F)cc4)OCOC3C2)ccc1OCCOC(F)(F)F` (stereo partly drawn) [Compound 99], no more than 2000 nM. The result for `COc1cc(C(=O)N2CCC3(c4ccccc4)CC3C2)ccc1C(C)(C)O` (stereo not drawn) [Compound 147] reads no more than 2000 nM; that for `Cc1cc(C(=O)N2CC[C@]3(c4ccccc4)OCOC3C2)ccc1OC(C)C` (stereo partly drawn) [Compound 77], no more than 2000 nM; that for `COc1cc(C(=O)N2CC[C@]3(c4ccc(F)cc4)OCOC3C2)ccc1OCC(C)(C)F` (stereo partly drawn) [Compound 38], no more than 2000 nM. On to `CC(C)(C)OCCOc1ccc(C(=O)N2CC[C@]3(c4ncccc4OCCOC(C)(C)C)OCOC3C2)cc1Cl` (stereo partly drawn) [Compound 87], for which the half-maximal inhibitory concentration (IC50) is no more than 2000 nM.

Turning to `CC(C)Oc1ccc(C(=O)N2CCC3(c4ccccc4)CC3C2)cc1C#N` (stereo not drawn) [Compound 35], the IC50 is no more than 2000 nM. For `COc1cc(C(=O)N2CC[C@@]3(c4cccc(F)c4)OCOC3C2)ccc1OCC1CC(F)(F)C1` (stereo partly drawn) [Compound 215], the IC50 is no more than 2000 nM. For `Cc1cc(C(=O)N2CC[C@]3(c4nccs4)OCOC3C2)ccc1OCCOC(F)(F)F` (stereo partly drawn) [Compound 167], the half-inhibitory concentration (IC50) was no more than 2000 nM. For `O=C(c1ccc(OCC2CC(F)(F)C2)c(C(F)(F)F)c1)N1CC[C@]2(c3ccccn3)OCOC2C1` (stereo partly drawn) [Compound 312] the value was no more than 2000 nM; for `COc1cccc([C@]23CCN(C(=O)c4ccc(OCCOC(F)(F)F)c(C)c4)CC2OCO3)n1` (stereo partly drawn) [Compound 190], no more than 2000 nM.

As for `CC(F)(F)COc1ccc(C(=O)N2CC[C@]3(c4ccccn4)OCOC3C2)cc1Cl` (stereo partly drawn) [Compound 106], the IC50 was no more than 2000 nM. With `COc1nc(C(=O)N2CC[C@]3(c4cccc(F)c4)OCOC3C2)ccc1OC(C)C1CC(F)(F)C1` (stereo partly drawn) [Compound 224], the IC50 was no more than 2000 nM.

Consider `COc1cc(C(=O)N2CC[C@]3(c4cccc(F)c4F)OCOC3C2)ccc1OCC1CC(F)(F)C1` (stereo partly drawn) [Compound 184], for which the IC50 is no more than 2000 nM.

As for `Cc1cc(C(=O)N2CC[C@@]3(c4ccccn4)COC3C2)ccc1OCCOC(F)(F)F` (stereo partly drawn) [Compound 206], the IC50 is no more than 2000 nM. With `Cc1cc(C(=O)N2CCC3(c4ccccc4)CC3C2)ccc1OC(C)C` (stereo not drawn) [Compound 79], the IC50 was no more than 2000 nM.

Consider `COc1cc(C(=O)N2CC[C@]3(c4ccccn4)C(=O)OCC3C2)ccc1OCCOC(F)(F)F` (stereo partly drawn) [Compound 277], for which the IC50 was no more than 2000 nM.

For `COc1cc(C(=O)N2CC[C@]3(c4cc(F)ccc4F)OCOC3C2)ccc1OCCOC(F)(F)F` (stereo partly drawn) [Compound 163], the IC50 was no more than 2000 nM. With `COc1nc(C(=O)N2CC[C@]3(c4cccc(F)c4)OCOC3C2)ccc1OCC1CC2C(C1)C2(F)F` (stereo partly drawn) [Compound 236], the IC50 was no more than 2000 nM.

`O=C(c1ccc(OCC2CC(F)(F)C2)c(Cl)c1)N1CC[C@]2(c3ccccn3)OCOC2C1` (stereo partly drawn) [Compound 146]: the IC50 was no more than 2000 nM.

Take `[2H]C1([2H])OC2CN(C(=O)c3ccc(OCCOC(F)(F)F)c(OC)n3)CC[C@]2(c2cccc(F)c2)O1` (stereo partly drawn) [Compound 189]: the IC50 was no more than 2000 nM. Take `CC(C)(O)COc1ccc(C(=O)N2CC[C@]3(c4nccs4)OCOC3C2)cc1Cl` (stereo partly drawn) [Compound 22]: the IC50 was in the range of 2000 to 5000 nM. For `O=C(c1cnc(OCCOC(F)(F)F)c(Cl)c1)N1CC[C@]2(c3ccccc3)OCOC2C1` (stereo partly drawn) [Compound 295] the value was no more than 2000 nM.

As to `O=C(c1cccc2cccnc12)N1CCC2(c3ccccc3)CC2C1` (stereo not drawn) [Compound 143], the IC50 is no more than 2000 nM. In the case of `COc1nc(C(=O)N2CC[C@]3(c4cccc(F)c4)OCOC3C2)ccc1OC1CC(F)(F)C1` (stereo partly drawn) [Compound 233], the half-inhibitory concentration (IC50) is no more than 2000 nM.

`COc1cc(C(=O)N2CC[C@@]3(c4ccc(F)cc4)OCOC3C2)ccc1COCCC(F)(F)F` (stereo partly drawn) [Compound 48]: the IC50 was no more than 2000 nM. For `Cc1nc(C(=O)N2CC[C@]3(c4ncccc4Cl)OCOC3C2)ccc1OC(C)C` (stereo partly drawn) [Compound 67] the value was no more than 2000 nM. The result for `O=C(c1ccc(OCCOC(F)(F)F)c(F)c1)N1CC[C@@]2(c3cccc(F)c3)OCOC2C1` (stereo partly drawn) [Compound 220] reads 2000 to 5000 nM; that for `COc1cc(C(=O)N2CC[C@@]3(c4cccc(F)c4)OCOC3C2)ccc1OC(C)C(F)(F)F` (stereo partly drawn) [Compound 212], 2000 to 5000 nM; that for `CC(COc1ccc(C(=O)N2CC[C@]3(c4ccccn4)OCOC3C2)cc1Cl)CC(F)(F)F` (stereo partly drawn) [Compound 164], no more than 2000 nM. Turning to `COc1nc(C(=O)N2CCC3(c4ccccc4)CC3C2)ccc1OCCOC(F)(F)F` (stereo not drawn) [Compound 178], the IC50 was no more than 2000 nM. For `O=C(c1ccc(OCCOC(F)(F)F)c(Cl)c1)N1CC[C@@]2(c3ccccn3)COC2C1` (stereo partly drawn) [Compound 202] the value was no more than 2000 nM. Consider `Cc1cc(C(=O)N2CC[C@]3(c4ncccn4)OCOC3C2)ccc1OC(C)C` (stereo partly drawn) [Compound 5], for which the IC50 was greater than 5000 nM. The result for `COc1cc(C(=O)N2CCC3(c4ccccc4)CC3C2)ccc1C(C)(C)CO` (stereo not drawn) [Compound 115] reads no more than 2000 nM. The result for `COc1cc(C(=O)N2CC[C@]3(c4cccc(F)c4)OCOC3C2)ccc1NCC1CC(F)(F)C1` (stereo partly drawn) [Compound 211] reads no more than 2000 nM; that for `Cc1cc(C(=O)N2CC[C@@]3(c4ccc(F)cc4)OCOC3C2)ccc1OCC(C)(C)F` (stereo partly drawn) [Compound 109], no more than 2000 nM; that for `CC(C)Oc1ccc(C(=O)N2CCC3(c4ccccc4)CC3C2)cn1` (stereo not drawn) [Compound 10], greater than 5000 nM.

Regarding `O=C(c1ccc(OCCOC(F)(F)F)c(Cl)c1)N1CC[C@@]2(c3cccc(F)c3)OCOC2C1` (stereo partly drawn) [Compound 216], the IC50 was no more than 2000 nM.

For `COc1cc(C(=O)N2CC[C@]3(c4cccc(F)c4F)OCOC3C2)ccc1O[C@@H](C)C(F)(F)F` (stereo partly drawn) [Compound 258], the IC50 was no more than 2000 nM.

Consider `COc1cc(C(=O)N2CC[C@@]3(c4ccccn4)CC3C2)ccc1OCCOC(F)(F)F` (stereo partly drawn) [Compound 266], for which the IC50 was no more than 2000 nM. The result for `COc1cc(C(=O)N2CC[C@]3(c4ccccn4)OCOC3C2)ccc1OCCOC(F)(F)F` (stereo partly drawn) [Compound 92] reads no more than 2000 nM. For `COc1nc(C(=O)N2CC[C@]3(c4cccc(F)c4)OCOC3C2)ccc1OCCOC(F)(F)F` (stereo partly drawn) [Compound 188] the value was no more than 2000 nM; for `O=C(c1ccc(OCCOC(F)(F)F)c(Cl)c1)N1CC[C@@]2(c3ccccn3)COC2C1` (stereo partly drawn) [Compound 116], no more than 2000 nM; for `COc1cc(C(=O)N2CC[C@]3(c4cccc(F)c4)OCOC3C2)ccc1OCC1CC(F)C1` (stereo partly drawn) [Compound 240], no more than 2000 nM. Take `COc1cc(C(=O)N2CCC3(c4ccccn4)C(C2)C3(F)F)ccc1OCCOC(F)(F)F` (stereo not drawn) [Compound 260]: the IC50 is no more than 2000 nM. The result for `COc1cc(C(=O)N2CC[C@]3(c4cccc(Br)n4)OCOC3C2)ccc1OCCOC(F)(F)F` (stereo partly drawn) [Compound 141] reads no more than 2000 nM.
